Test results: ChEMBL document CHEMBL1132781, “Structure-based design and synthesis of phosphinate isosteres of phosphotyrosine for incorporation in Grb2-SH2 domain inhibitors. Part 1” (Bioorg Med Chem Lett, 2000)

target: Growth factor receptor-bound protein 2 (Homo sapiens, UniProt P62993); assay: Inhibition of Grb2-SH2 domain binding to phospho-EGF receptor intracellular C-terminal domain; format: cell-based

Compound	IC50
CC(=O)N[C@@H](Cc1ccc(CP(=O)(O)C(O)c2ccccc2)cc1)C(=O)NC1(C(=O)N[C@@H]2CCCC[C@@H]2C(N)=O)CCCCC1 (stereo partly specified)	0.53 µM
CC(=O)N[C@@H](Cc1ccc(CP(C)(=O)O)cc1)C(=O)NC1(C(=O)N[C@@H]2CCCC[C@@H]2C(N)=O)CCCCC1	25.5 µM
CC(=O)N[C@@H](Cc1ccc(CP(=O)(O)Cc2ccccc2)cc1)C(=O)NC1(C(=O)N[C@@H]2CCCC[C@@H]2C(N)=O)CCCCC1	1.2 µM

Continued, values first:

IC50	Compound
1.6 µM	CC(=O)N[C@@H](Cc1ccc(CP(=O)(O)CCO)cc1)C(=O)NC1(C(=O)N[C@@H]2CCCC[C@@H]2C(N)=O)CCCCC1
7.6 µM	CC(=O)N[C@@H](Cc1ccc(CP(=O)(O)CO)cc1)C(=O)NC1(C(=O)N[C@@H]2CCCC[C@@H]2C(N)=O)CCCCC1
0.7 µM	CC(=O)N[C@@H](Cc1ccc(CP(=O)(O)O)cc1)C(=O)NC1(C(=O)N[C@@H]2CCCC[C@@H]2C(N)=O)CCCCC1
